Tests used:
Experiment in all cases: relative viability (nuclei count vs DMSO), 5 days (fraction); higher = more cells survive
[1] = test system: NCI-H661
Summary of the method: (§1)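 Values are medians from duplicate plates. Each reflects relative viability, defined as the nuclei count of treated wells over that of vehicle wells. Lung cancer cell lines in 1536-well plates were pin-tool dosed one day after seeding with one drug alone or with a fixed anchor-drug dose plus five library-drug doses (not always all listed) in √10 steps, then fixed, stained and imaged at 4× after 5 days.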

[2] = test system: SW 1573
Summary of the method: as §1

[3] = test system: NCI-H2009
Summary of the method: as §1

[4] = test system: NCI-H2126
Summary of the method: as §1

[5] = test system: NCI-H647
Summary of the method: as §1

[6] = test system: H3255
Summary of the method: as §1

[7] = test system: EMC-BAC-2
Summary of the method: as §1

[8] = test system: LXF-289
Summary of the method: as §1

[9] = test system: PC-14
Summary of the method: as §1

[10] = test system: EPLC-272H
Summary of the method: as §1

[11] = test system: HOP-62
Summary of the method: as §1

[12] = test system: LCLC-97TM1
Summary of the method: as §1

[13] = test system: NCI-H1993
Summary of the method: as §1

[14] = test system: NCI-H322M
Summary of the method: as §1

[15] = test system: NCI-H1915
Summary of the method: as §1

[16] = test system: SK-LU-1
Summary of the method: as §1

[17] = test system: NCI-H727
Summary of the method: as §1

[18] = test system: NCI-H2347
Summary of the method: as §1

[19] = test system: NCI-H2085
Summary of the method: as §1

[20] = test system: NCI-H2023
Summary of the method: as §1

[21] = test system: NCI-H1734
Summary of the method: as §1

Question: `CCN(CC)CCCCNc1ncc2cc(-c3cc(OC)cc(OC)c3)c(NC(=O)NC(C)(C)C)nc2n1` + CC(=O)c1c(C)c2cnc(Nc3ccc(N4CCNCC4)cn3)nc2n(C2CCCC2)c1=O [Palbociclib] (partner 0.5 µM) was tested. Which relative viability ([1]; first compound 0.01 µM) did it give?
Answer: 0.394

Question: And the relative viability ([1]; first compound 0.03162 µM)?
Answer: 0.41

Question: And the relative viability ([1]; first compound 0.1 µM)?
Answer: 0.418

Question: What about the relative viability ([1]; first compound 0.3162 µM) of the same compound?
Answer: 0.444

Question: What about the relative viability ([1]; first compound 1 µM) of the same compound?
Answer: 0.38

Question: And the relative viability ([2]; first compound 0.01 µM)?
Answer: 0.377

Question: And the relative viability ([2]; first compound 0.03162 µM)?
Answer: 0.407

Question: What about the relative viability ([2]; first compound 0.1 µM) of the same compound?
Answer: 0.519

Question: And the relative viability ([2]; first compound 0.3162 µM)?
Answer: 0.398

Question: What about the relative viability ([2]; first compound 1 µM) of the same compound?
Answer: 0.331

Question: What about the relative viability ([3]; first compound 0.01 µM) of the same compound?
Answer: 0.211

Question: And the relative viability ([3]; first compound 0.03162 µM)?
Answer: 0.22

Question: What about the relative viability ([3]; first compound 0.1 µM) of the same compound?
Answer: 0.234

Question: And the relative viability ([3]; first compound 0.3162 µM)?
Answer: 0.196

Question: And the relative viability ([3]; first compound 1 µM)?
Answer: 0.161

Question: And the relative viability ([4]; first compound 0.01 µM)?
Answer: 0.353

Question: And the relative viability ([4]; first compound 0.03162 µM)?
Answer: 0.37

Question: And the relative viability ([4]; first compound 0.1 µM)?
Answer: 0.399

Question: What about the relative viability ([4]; first compound 0.3162 µM) of the same compound?
Answer: 0.345

Question: What about the relative viability ([4]; first compound 1 µM) of the same compound?
Answer: 0.355

Question: And the relative viability ([5]; first compound 0.01 µM)?
Answer: 0.309

Question: And the relative viability ([5]; first compound 0.03162 µM)?
Answer: 0.42

Question: What about the relative viability ([5]; first compound 0.1 µM) of the same compound?
Answer: 0.427

Question: And the relative viability ([5]; first compound 0.3162 µM)?
Answer: 0.497

Question: And the relative viability ([5]; first compound 1 µM)?
Answer: 0.394

Question: And the relative viability ([6]; first compound 0.01 µM)?
Answer: 0.317

Question: And the relative viability ([6]; first compound 0.03162 µM)?
Answer: 0.292

Question: And the relative viability ([6]; first compound 0.1 µM)?
Answer: 0.388

Question: And the relative viability ([6]; first compound 0.3162 µM)?
Answer: 0.315

Question: What about the relative viability ([6]; first compound 1 µM) of the same compound?
Answer: 0.317

Question: What about the relative viability ([7]; first compound 0.03162 µM) of the same compound?
Answer: 0.501

Question: And the relative viability ([7]; first compound 0.1 µM)?
Answer: 0.525

Question: And the relative viability ([7]; first compound 0.3162 µM)?
Answer: 0.536

Question: What about the relative viability ([7]; first compound 1 µM) of the same compound?
Answer: 0.527

Question: And the relative viability ([8]; first compound 0.01 µM)?
Answer: 0.628

Question: And the relative viability ([8]; first compound 0.03162 µM)?
Answer: 0.581

Question: And the relative viability ([8]; first compound 0.1 µM)?
Answer: 0.673

Question: And the relative viability ([8]; first compound 0.3162 µM)?
Answer: 0.61

Question: What about the relative viability ([8]; first compound 1 µM) of the same compound?
Answer: 0.559

Question: And the relative viability ([9]; first compound 0.01 µM)?
Answer: 0.599

Question: And the relative viability ([9]; first compound 0.03162 µM)?
Answer: 0.467

Question: What about the relative viability ([9]; first compound 0.1 µM) of the same compound?
Answer: 0.654

Question: What about the relative viability ([9]; first compound 0.3162 µM) of the same compound?
Answer: 0.564

Question: And the relative viability ([9]; first compound 1 µM)?
Answer: 0.56

Question: And the relative viability ([10]; first compound 0.01 µM)?
Answer: 0.286

Question: What about the relative viability ([10]; first compound 0.1 µM) of the same compound?
Answer: 0.33

Question: What about the relative viability ([10]; first compound 0.3162 µM) of the same compound?
Answer: 0.284

Question: And the relative viability ([10]; first compound 1 µM)?
Answer: 0.339

Question: And the relative viability ([11]; first compound 0.01 µM)?
Answer: 0.463

Question: What about the relative viability ([11]; first compound 0.03162 µM) of the same compound?
Answer: 0.455

Question: What about the relative viability ([11]; first compound 0.1 µM) of the same compound?
Answer: 0.481

Question: What about the relative viability ([11]; first compound 0.3162 µM) of the same compound?
Answer: 0.425

Question: And the relative viability ([11]; first compound 1 µM)?
Answer: 0.45

Question: What about the relative viability ([12]; first compound 0.01 µM) of the same compound?
Answer: 0.205

Question: And the relative viability ([12]; first compound 0.03162 µM)?
Answer: 0.203

Question: What about the relative viability ([12]; first compound 0.1 µM) of the same compound?
Answer: 0.297

Question: What about the relative viability ([12]; first compound 0.3162 µM) of the same compound?
Answer: 0.238

Question: And the relative viability ([12]; first compound 1 µM)?
Answer: 0.218

Question: And the relative viability ([13]; first compound 0.01 µM)?
Answer: 0.368

Question: And the relative viability ([13]; first compound 0.03162 µM)?
Answer: 0.763

Question: And the relative viability ([13]; first compound 0.1 µM)?
Answer: 0.791

Question: And the relative viability ([13]; first compound 0.3162 µM)?
Answer: 0.661

Question: What about the relative viability ([13]; first compound 1 µM) of the same compound?
Answer: 0.738

Question: What about the relative viability ([14]; first compound 0.01 µM) of the same compound?
Answer: 0.516

Question: What about the relative viability ([14]; first compound 0.03162 µM) of the same compound?
Answer: 0.45

Question: What about the relative viability ([14]; first compound 0.1 µM) of the same compound?
Answer: 0.508

Question: And the relative viability ([14]; first compound 0.3162 µM)?
Answer: 0.504

Question: What about the relative viability ([14]; first compound 1 µM) of the same compound?
Answer: 0.474

Question: And the relative viability ([15]; first compound 0.01 µM)?
Answer: 0.655

Question: What about the relative viability ([15]; first compound 0.03162 µM) of the same compound?
Answer: 0.528

Question: And the relative viability ([15]; first compound 0.1 µM)?
Answer: 0.557

Question: What about the relative viability ([15]; first compound 0.3162 µM) of the same compound?
Answer: 0.546

Question: What about the relative viability ([15]; first compound 1 µM) of the same compound?
Answer: 0.496

Question: What about the relative viability ([16]; first compound 0.01 µM) of the same compound?
Answer: 0.457

Question: And the relative viability ([16]; first compound 0.03162 µM)?
Answer: 0.387

Question: And the relative viability ([16]; first compound 0.1 µM)?
Answer: 0.359

Question: What about the relative viability ([16]; first compound 0.3162 µM) of the same compound?
Answer: 0.434

Question: What about the relative viability ([16]; first compound 1 µM) of the same compound?
Answer: 0.309

Question: What about the relative viability ([17]; first compound 0.01 µM) of the same compound?
Answer: 0.581

Question: What about the relative viability ([17]; first compound 0.03162 µM) of the same compound?
Answer: 0.635

Question: And the relative viability ([17]; first compound 0.1 µM)?
Answer: 0.769

Question: And the relative viability ([17]; first compound 0.3162 µM)?
Answer: 0.697

Question: What about the relative viability ([17]; first compound 1 µM) of the same compound?
Answer: 0.59

Question: What about the relative viability ([18]; first compound 0.01 µM) of the same compound?
Answer: 0.551

Question: What about the relative viability ([18]; first compound 0.03162 µM) of the same compound?
Answer: 0.452

Question: And the relative viability ([18]; first compound 0.1 µM)?
Answer: 0.415

Question: What about the relative viability ([18]; first compound 0.3162 µM) of the same compound?
Answer: 0.484

Question: What about the relative viability ([18]; first compound 1 µM) of the same compound?
Answer: 0.387

Question: What about the relative viability ([19]; first compound 0.01 µM) of the same compound?
Answer: 0.466

Question: And the relative viability ([19]; first compound 0.03162 µM)?
Answer: 0.45

Question: What about the relative viability ([19]; first compound 0.1 µM) of the same compound?
Answer: 0.443

Question: And the relative viability ([19]; first compound 0.3162 µM)?
Answer: 0.468

Question: What about the relative viability ([19]; first compound 1 µM) of the same compound?
Answer: 0.457

Question: And the relative viability ([20]; first compound 0.01 µM)?
Answer: 0.317

Question: What about the relative viability ([20]; first compound 0.03162 µM) of the same compound?
Answer: 0.32

Question: And the relative viability ([20]; first compound 0.1 µM)?
Answer: 0.348

Question: And the relative viability ([20]; first compound 0.3162 µM)?
Answer: 0.347

Question: What about the relative viability ([20]; first compound 1 µM) of the same compound?
Answer: 0.291

Question: What about the relative viability ([21]; first compound 0.01 µM) of the same compound?
Answer: 0.16

Question: And the relative viability ([21]; first compound 0.03162 µM)?
Answer: 0.281

Question: What about the relative viability ([21]; first compound 0.1 µM) of the same compound?
Answer: 0.334

Question: And the relative viability ([21]; first compound 0.3162 µM)?
Answer: 0.38

Question: What about the relative viability ([21]; first compound 1 µM) of the same compound?
Answer: 0.323

From the supplement of paper PMC10307832
